According to ChEMBL document CHEMBL3112495, “Diphenylpyridylethanamine (DPPE)-based aminoheterocycles as cholesteryl ester transfer protein inhibitors” (Bioorg Med Chem Lett, 2014):

The compounds below were run against T1, Cholesteryl ester transfer protein (Homo sapiens, UniProt P11597) (assay: Inhibition of human recombinant CETP using [3H]-CE/HDL by scintillation proximity assay).
T1 sequence (P11597 whole entry): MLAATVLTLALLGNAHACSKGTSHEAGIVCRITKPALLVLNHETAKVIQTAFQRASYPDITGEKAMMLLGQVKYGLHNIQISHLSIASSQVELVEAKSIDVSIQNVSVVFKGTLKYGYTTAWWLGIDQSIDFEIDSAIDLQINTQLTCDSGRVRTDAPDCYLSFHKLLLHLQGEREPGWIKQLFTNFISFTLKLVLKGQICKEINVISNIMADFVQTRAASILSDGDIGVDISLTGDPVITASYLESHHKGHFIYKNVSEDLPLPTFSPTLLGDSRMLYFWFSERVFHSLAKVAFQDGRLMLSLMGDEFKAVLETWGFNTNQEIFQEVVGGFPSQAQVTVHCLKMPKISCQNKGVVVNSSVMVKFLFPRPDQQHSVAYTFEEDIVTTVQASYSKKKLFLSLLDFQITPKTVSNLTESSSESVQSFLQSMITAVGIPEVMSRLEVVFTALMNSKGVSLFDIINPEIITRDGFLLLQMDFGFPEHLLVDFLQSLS
In the case of `COC(=O)c1sc(NC(Cc2ccccc2)(c2cc(F)cc(C(F)(F)F)c2)c2ccc(Cl)cn2)nc1C` (stereo not drawn), the IC50 is reported as 32000 nM.
In the case of `Fc1cc(C(F)(F)F)cc(C(Cc2ccccc2)(Nc2nc(C(F)(F)F)c(Br)s2)c2ccc(Cl)cn2)c1` (stereo not drawn), the IC50 is reported as 100 nM.
Work on `Fc1cc(C(F)(F)F)cc(C(Cc2ccccc2)(Nc2nc(C(F)(F)F)cs2)c2ccc(Cl)cn2)c1` (stereo not drawn) yielded an IC50 of 1200 nM.
`CC(C)(C)c1csc(NC(Cc2ccccc2)(c2cc(F)cc(C(F)(F)F)c2)c2ccc(Cl)cn2)n1` (stereo not drawn) was tested, and the IC50 was 7500 nM.
`CCc1csc(NC(Cc2ccccc2)(c2cc(F)cc(C(F)(F)F)c2)c2ccc(Cl)cn2)n1` (stereo not drawn) gave an IC50 of 700 nM.
Compound `Cc1cnc(NC(Cc2ccccc2)(c2cc(F)cc(C(F)(F)F)c2)c2ccc(Cl)cn2)s1` (stereo not drawn) has an IC50 of 1100 nM.
For `Cn1nnc(NC(Cc2ccccc2)(c2cc(F)cc(C(F)(F)F)c2)c2ccc(Cl)cn2)n1` (stereo not drawn), the IC50 was 11000 nM.
`Fc1cc(C(F)(F)F)cc(C(Cc2ccccc2)(Nc2nc3ccccc3s2)c2ccc(Cl)cn2)c1` (stereo not drawn) was tested, and the IC50 was 500 nM.
`Fc1cc(C(F)(F)F)cc(C(Cc2ccccc2)(Nc2nc3ccccc3o2)c2ccc(Cl)cn2)c1` (stereo not drawn) gave an IC50 of 2000 nM.
`Fc1cc(C(F)(F)F)cc(C(Cc2ccccc2)(Nc2nc3ccccc3[nH]2)c2ccc(Cl)cn2)c1` (stereo not drawn) was tested, and the IC50 was 200 nM.
With `Fc1cc(C(F)(F)F)cc(C(Cc2ccccc2)(Nc2nnc(-c3ccccc3)[nH]2)c2ccc(Cl)cn2)c1` (stereo not drawn) the IC50 was greater than 32000 nM.
With `Fc1cc(C(F)(F)F)cc(C(Cc2ccccc2)(Nc2ncc(-c3ccccc3)o2)c2ccc(Cl)cn2)c1` (stereo not drawn) the IC50 was 12000 nM.
In the case of `Fc1cc(C(F)(F)F)cc(C(Cc2ccccc2)(Nc2nc3c(s2)CCCC3)c2ccc(Cl)cn2)c1` (racemic), the IC50 is reported as 200 nM.
Compound `Cc1nc(NC(Cc2ccccc2)(c2cc(F)cc(C(F)(F)F)c2)c2ccc(Cl)cn2)sc1C` (racemic) has an IC50 of 400 nM.

What follows are compounds tested against T1, Cholesteryl ester transfer protein (assay: Inhibition of CETP in human whole plasma using [3H]-CE/HDL after 10 mins).
`Fc1cc(C(F)(F)F)cc(C(Cc2ccccc2)(Nc2nc3ccccc3s2)c2ccc(Cl)cn2)c1` (stereo not drawn) showed an IC50 of 23000 nM.
For `Fc1cc(C(F)(F)F)cc(C(Cc2ccccc2)(Nc2nc3ccccc3[nH]2)c2ccc(Cl)cn2)c1` (stereo not drawn), the IC50 was 19600 nM.
In the case of `Fc1cc(C(F)(F)F)cc(C(Cc2ccccc2)(Nc2nc3c(s2)CCCC3)c2ccc(Cl)cn2)c1` (racemic), the IC50 is reported as 20200 nM.
Work on `Cc1nc(NC(Cc2ccccc2)(c2cc(F)cc(C(F)(F)F)c2)c2ccc(Cl)cn2)sc1C` (racemic) yielded an IC50 of 29500 nM.
